Source: patent US11033547B2, “Carboxamide-pyrimidine derivatives as SHP2 antagonists” (Merck Patent GmbH, priority 2019, dated 2021)
Read-outs that look alike come from different tables or passages of the source.

Assays:
[1] = biological target: Full length SHP2 protein (Recombinant Human SHP-2) (Homo sapiens, UniProt Q06124); assay: SHP2 biochemical assay (DiFMUP substrate, activating peptide IRSI_2pY); conditions: DiFMUP substrate, activating peptide IRSI_2pY, 60 min at RT; read-out: SHP-2 Biochemical assay IC50
Experimental: The inhibition of SHP2 by compounds of the invention was monitored using the surrogate substrate DiFMUP after protein activation by a peptide bearing two appropriately spaced phosphotyrosine. […] The generation of the DiFMU product by activated SHP2 was monitored through Fluorescence measurement with a PerkinElmer Envision reader.
The inhibitor dose response curves were analyzed with Genedata Screener.

[2] = system: pERK level in KYSE520 cells; assay: p-Erk cellular assay in KYSE520 (Mesoscale); format: cell-based; conditions: 2 h incubation, read-out: pERK1/2 in KYSE520 IC50
Experimental: (§1) p-Erk Cellular Assay in MDA-MB-468 and KYSE520:
(§2) The effect of SHP2 inhibitors on pERK level was assessed using phospho-specific antibody using Mesoscale quantification platform. For measuring change in pERK levels using mesoscale, 30,000 cells of MDA MB468 and KYSE520 cells were plated in 96-well tissue culture treated plate in 175 ul volume of media. After an overnight incubation at 37° C., various SHP2 inhibitors were added in different concentration to each well maintaining duplicate wells across plates and incubated with compounds for 2 h at 37° C. followed by a wash with ice cold PBS buffer. The cells were then lysed in lysis buffer and processed and analyzed for p-ERK/ERK as per manufacturer's instructions (Mesoscale discovery, cat No. K15107D-3).

[3] = system: pERK level in MDA-MB-468 cells; assay: p-Erk cellular assay in MDA-MB-468 (Mesoscale); format: cell-based; conditions: 2 h incubation, read-out: pERK1/2 in MDA-MB-468 IC50
Experimental: as §1, §2

IC50 [1] [nM] | Compound | other results
410 | Cc1nc(N[C@@H]2CCC[C@H](N)C2)nc(C(N)=O)c1-c1cccc(Cl)c1Cl (atropisomer, axis not shown; (M)) [Compound 88, (4M)-2-{[(1R,3S)-3-aminocyclohexyl]amino}-5-(2,3-dichlorophenyl)-6-methylpyrimidine-4-carboxamide] | IC50 ([2]; Homo sapiens, KYSE-520, 2 h): 4250 nM
500 | NC[C@@]12CCCC[C@@H]1CN(c1nc(N)c(-c3cccc(Cl)c3Cl)c(C(N)=O)n1)C2 (single isomer, unassigned) [Compound 100] | IC50 ([2]; Homo sapiens, KYSE-520, 2 h): 12800 nM
120 | NC[C@]12CCC[C@H]1CN(c1nc(N)c(-c3cccc(Cl)c3Cl)c(C(N)=O)n1)C2 (single isomer, unassigned) [Compound 104] | IC50 ([2]; Homo sapiens, KYSE-520, 2 h): 2250 nM
6300 | Cc1nc(N2C[C@H](N)[C@@H](O)C2)nc(C(N)=O)c1-c1cccc(Cl)c1Cl [Compound 84, 2-((3S,4S)-3-Amino-4-hydroxy-pyrrolidin-1-yl)-5-(2,3-dichloro-phenyl)-6-methyl-pyrimidine-4-carboxylic acid amide] | –
> 10000 | Cc1nc(N2CCC(C)(N)CC2)nc(C(N)=O)c1-c1ccncc1 [Compound 86, 2-(4-Amino-4-methyl-piperidin-1-yl)-6-methyl-5-pyridin-4-yl-pyrimidine-4-carboxylic acid amide] | –
100 | CC1(N)CCCN(c2nc(N)c(-c3cccc(Cl)c3Cl)c(C(N)=O)n2)CC1 (stereo not drawn) [Compound 91, 6-Amino-2-(4-amino-4-methyl-azepan-1-yl)-5-(2,3-dichloro-phenyl)-pyrimidine-4-carboxylic acid amide] | IC50 ([2]; Homo sapiens, KYSE-520, 2 h): 2600 nM
2300 | Cc1nc(N[C@H]2CC[C@@H](N)CC2)nc(C(N)=O)c1-c1cccc(Cl)c1Cl [Compound 93, 2-(4-Amino-cyclohexyl-amino)-5-(2,3-dichloro-phenyl)-6-methyl-pyrimidine-4-carboxylic acid amide] | –
530 | Cc1nc(N2CCC(C)(N)CC2)nc(C(N)=O)c1-c1cccc(C(F)(F)F)c1Cl [Compound 111, 2-(4-Amino-4-methyl-piperidin-1-yl)-5-(2-chloro-3-trifluoromethyl-phenyl)-6-methyl-pyrimidine-4-carboxylic acid amide] | IC50 ([2]; Homo sapiens, KYSE-520, 2 h): 4700 nM
530 | Cc1nc(N2CCC3(CC2)Oc2ncccc2[C@@H]3N)nc(C(N)=O)c1-c1cccc(Cl)c1Cl [Compound 125, (4M)-2-[(3S)-3-amino-3H-spiro[furo[2,3-b]pyridine-2,4′-piperidin]-1′-yl]-5-(2,3-dichlorophenyl)-6-methylpyrimidine-4-carboxamide] | –
> 10000 | Cc1nc(N2CCC3(CC2)Oc2ncccc2[C@@H]3N)nc(C(N)=O)c1-c1cccc(Cl)c1Cl [Compound 127, (4P)-2-[(3S)-3-amino-3H-spiro[furo[2,3-b]pyridine-2,4′-piperidin]-1′-yl]-5-(2,3-dichlorophenyl)-6-methylpyrimidine-4-carboxamide] | –

Continued, compound first:

Compound | IC50 [1] [nM] | other results
2-((S)-3-amino-3H-spiro[benzofuran-2,4′-piperidin]-1′-yl)-5-(2,3-dichlorophenyl)-6-methylpyrimidine-4-carboxamide [Compound 122] | 17 | IC50 [2]: 48 nM
CC1(N)CCN(c2nc(N)c(-c3cccc(Cl)c3Cl)c(C(N)=O)n2)CC1 (atropisomer, axis not shown; (M)) [Compound 26, (4M)-6-Amino-2-(4-amino-4-methyl-piperidin-1-yl)-5-(2,3-dichloro-phenyl)-pyrimidine-4-carboxylic acid amide] | > 10000 | IC50 [2]: > 10000 nM; IC50 [3]: 8190 nM
Cc1nc(N2CCC(C)(N)CC2)nc(C(N)=O)c1-c1cccc(Cl)c1Cl (atropisomer, axis not shown; (M)) [Compound 30, (4M)-2-(4-amino-4-methylpiperidin-1-yl)-5-(2,3-dichlorophenyl)-6-methylpyrimidine-4-carboxamide] | 110 | IC50 [3]: 475 nM
C[C@@H]1OCC2(CCN(c3nc(N)c(-c4cccc(Cl)c4Cl)c(C(N)=O)n3)CC2)[C@@H]1N (single isomer, unassigned) [Compound 66] | – | IC50 ([2]; Homo sapiens, KYSE-520, 2 h): 863 nM; IC50 ([3]; Homo sapiens, MDA-MB-468, 2 h): 503 nM
Cc1nc(N2CCC3(CC2)CC(F)(F)C[C@H]3N)nc(C(N)=O)c1-c1cccc(Cl)c1Cl (single isomer, unassigned) [Compound 96] | – | IC50 ([2]; Homo sapiens, KYSE-520, 2 h): 993 nM
CC1(N)CCN(c2ncc(-c3cccc(Cl)c3Cl)c(C(N)=O)n2)CC1 [Compound 1, 2-(4-amino-4-methylpiperidin-1-yl)-5-(2,3-dichlorophenyl)pyrimidine-4-carboxamide] | – | IC50 ([3]; Homo sapiens, MDA-MB-468, 2 h): 12000 nM
CC1(N)CCN(c2nc(N)c(-c3cccc(Cl)c3)c(C(N)=O)n2)CC1 [Compound 2, 6-Amino-2-(4-amino-4-methyl-piperidin-1-yl)-5-(3-chlorophenyl)-pyrimidine-4-carboxylic Acid Amide] | 2100 | IC50 ([3]; Homo sapiens, MDA-MB-468, 2 h): 3080 nM
CC1(N)CCN(c2nc(Cl)c(-c3cccc(Cl)c3Cl)c(C(N)=O)n2)CC1 [Compound 16, 2-(4-Amino-4-methyl-piperidin-1-yl)-6-chloro-5-(2,3-dichlorophenyl)-pyrimidine-4-carboxylic Acid Amide] | – | IC50 ([2]; Homo sapiens, KYSE-520, 2 h): 1140 nM; IC50 [3]: 516 nM
NC(=O)c1nc(N2CC(N)C2)nc(N)c1-c1cccc(Cl)c1Cl [Compound 69, 6-amino-2-(3-aminoazetidin-1-yl)-5-(2,3-dichlorophenyl)-pyrimidine-4-carboxamide] | 5600 | –
NC[C@@H]1[C@H]2CN(c3nc(N)c(-c4cccc(Cl)c4Cl)c(C(N)=O)n3)C[C@@H]12 [Compound 70, 6-amino-2-[(1R,5S,6R)-6-(aminomethyI)-3-azabicyclo-[3.1.0]hexan-3-yl]-5-(2,3-dichlorophenyl)pyrimidine-4-carboxamide] | 5300 | –
NCC1CCN1c1nc(N)c(-c2cccc(Cl)c2Cl)c(C(N)=O)n1 (stereo not drawn) [Compound 71, 6-amino-2-[2-(aminomethyl)-azetidin-1-yl]-5-(2,3-dichlorophenyl)pyrimidine-4-carboxamide] | 1300 | –
Cc1nc(N2C[C@H]3CC[C@@H](N)[C@H]3C2)nc(C(N)=O)c1-c1cccc(Cl)c1Cl [Compound 72, 2-((3aR,4R,6aS)-4-Amino-hexahydro-cyclopenta-[c]pyrrol-2-yl)-5-(2,3-dichloro-phenyl)-6-methyl-pyrimidine-4-carboxylic acid amide] | 6700 | –
Cc1nc(N2C[C@H]3CCC(N)[C@@H]3C2)nc(C(N)=O)c1-c1cccc(Cl)c1Cl (stereo partly drawn) [Compound 73, 2-((3aS,6aS)-4-Amino-hexahydro-cyclopenta-[c]pyrrol-2-yl)-5-(2,3-dichloro-phenyl)-6-methyl-pyrimidine-4-carboxylic acid amide] | 5200 | –
Cc1nc(N2C[C@@H]3CC[C@H](N)[C@@H]3C2)nc(C(N)=O)c1-c1cccc(Cl)c1Cl [Compound 74, 2-((3aS,4S,6aR)-4-Amino-hexahydro-cyclopenta-[c]pyrrol-2-yl)-5-(2,3-dichloro-phenyl)-6-methyl-pyrimidine-4-carboxylic acid amide] | > 10000 | –
Cc1nc(N2C[C@@H]3CC[C@@H](N)[C@@H]3C2)nc(C(N)=O)c1-c1cccc(Cl)c1Cl [Compound 75, 2-((3aS,4R,6aR)-4-Amino-hexahydro-cyclopenta[c]pyrrol-2-yl)-5-(2,3-dichloro-phenyl)-6-methyl-pyrimidine-4-carboxylic acid amide] | 2100 | –
Cc1nc(N2C[C@@H]3CCC(N)[C@H]3C2)nc(C(N)=O)c1-c1cccc(Cl)c1Cl (stereo partly drawn) [Compound 76, 2-((3aR,6aR)-4-Amino-hexahydro-cyclopenta-[c]pyrrol-2-yl)-5-(2,3-dichloro-phenyl)-6-methyl-pyrimidine-4-carboxylic acid amide] | 1000 | –
Cc1nc(N2C[C@H]3CC[C@H](N)[C@H]3C2)nc(C(N)=O)c1-c1cccc(Cl)c1Cl [Compound 77, 2-((3aR,4S,6aS)-4-Amino-hexahydro-cyclopenta-[c]pyrrol-2-yl)-5-(2,3-dichloro-phenyl)-6-methyl-pyrimidine-4-carboxylic acid amide] | > 10000 | –
Cc1nc(N2C[C@@H](N)[C@@H](O)C2)nc(C(N)=O)c1-c1cccc(Cl)c1Cl [Compound 80, 2-((3R,4S)-3-Amino-4-hydroxy-pyrrolidin-1-yl)-5-(2,3-dichloro-phenyl)-6-methyl-pyrimidine-4-carboxylic acid amide] | 5300 | –
Cc1nc(N2CCC(C)(N)CC2)nc(C(N)=O)c1-c1ccc(F)cc1Cl [Compound 82, 2-(4-Amino-4-methyl-piperidin-1-yl)-5-(2-chloro-4-fluoro-phenyl)-6-methyl-pyrimidine-4-carboxylic acid amide] | 2000 | –
Cc1nc(N2CCC(C)(N)CC2)nc(C(N)=O)c1-c1cnccc1Cl [Compound 83, 2-(4-Amino-4-methyl-piperidin-1-yl)-5-(4-chloro-pyridin-3-yl)-6-methyl-pyrimidine-4-carboxylic acid amide] | 14000 | –
